Measured values taken from ChEMBL document CHEMBL3525934 (Drug Metab Dispos, 2013).

How the values were obtained:
Type in all cases: ADME
Settings in all cases: 0.5 h
[1] = biological target: T1, Cytochrome P450 1A1 (Homo sapiens, UniProt P04798); test: Drug metabolism in supersomes expressing human recombinant CYP1A1 assessed as enzyme-mediated total GSH conjugate formation at 100 uM after 30 mins measured per nmol of P450 by HPLC analysis in presence of GSH and hGST P1-1
T1 sequence (P04798 whole entry): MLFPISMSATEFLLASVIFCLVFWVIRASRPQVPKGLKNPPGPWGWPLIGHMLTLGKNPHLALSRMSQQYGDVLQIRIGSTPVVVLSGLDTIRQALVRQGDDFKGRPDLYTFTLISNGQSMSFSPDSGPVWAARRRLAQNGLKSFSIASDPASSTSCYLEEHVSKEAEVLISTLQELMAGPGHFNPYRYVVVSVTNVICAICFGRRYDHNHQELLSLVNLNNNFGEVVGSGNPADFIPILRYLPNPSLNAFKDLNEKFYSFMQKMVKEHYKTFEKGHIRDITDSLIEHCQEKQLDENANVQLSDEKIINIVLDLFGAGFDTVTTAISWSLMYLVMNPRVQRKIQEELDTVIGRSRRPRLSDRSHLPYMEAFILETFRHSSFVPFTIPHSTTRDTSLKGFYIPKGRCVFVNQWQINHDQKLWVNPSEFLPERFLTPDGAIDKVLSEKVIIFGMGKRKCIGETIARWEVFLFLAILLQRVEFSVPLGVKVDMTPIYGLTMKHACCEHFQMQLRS

[2] = biological target: T2, Cytochrome P450 2C19 (Homo sapiens, UniProt P33261); test: Drug metabolism in supersomes expressing human recombinant CYP2C19 assessed as enzyme-mediated N-desmethylclozapine metabolite formation at 10 uM after 30 mins measured per nmol of P450 by HPLC analysis
[3] = biological target: T3, Cytochrome P450 2C18 (Homo sapiens, UniProt P33260); test: Drug metabolism in supersomes expressing human recombinant CYP2C18 assessed as enzyme-mediated clozapine-N-oxide metabolite formation at 10 uM after 30 mins measured per nmol of P450 by HPLC analysis
T3 sequence (P33260 whole entry): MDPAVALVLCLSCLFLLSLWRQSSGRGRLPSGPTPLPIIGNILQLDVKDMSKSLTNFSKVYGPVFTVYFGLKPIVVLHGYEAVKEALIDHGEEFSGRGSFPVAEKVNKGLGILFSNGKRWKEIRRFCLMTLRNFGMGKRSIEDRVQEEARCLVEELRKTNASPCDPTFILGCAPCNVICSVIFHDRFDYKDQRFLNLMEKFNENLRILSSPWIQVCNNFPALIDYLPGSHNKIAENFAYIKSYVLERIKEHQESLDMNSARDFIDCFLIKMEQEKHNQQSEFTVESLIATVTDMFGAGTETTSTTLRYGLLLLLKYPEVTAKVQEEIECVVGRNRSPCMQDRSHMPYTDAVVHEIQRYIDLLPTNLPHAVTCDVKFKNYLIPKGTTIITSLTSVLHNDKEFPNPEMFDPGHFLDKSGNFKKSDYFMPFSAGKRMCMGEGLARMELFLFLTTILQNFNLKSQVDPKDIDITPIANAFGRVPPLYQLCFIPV

[4] = biological target: T4, Cytochrome P450 1B1 (Homo sapiens, UniProt Q16678); test: Drug metabolism in supersomes expressing human recombinant CYP1B1 assessed as enzyme-mediated total GSH conjugate formation at 100 uM after 30 mins measured per nmol of P450 by HPLC analysis in presence of GSH and hGST P1-1
T4 sequence (Q16678 whole entry): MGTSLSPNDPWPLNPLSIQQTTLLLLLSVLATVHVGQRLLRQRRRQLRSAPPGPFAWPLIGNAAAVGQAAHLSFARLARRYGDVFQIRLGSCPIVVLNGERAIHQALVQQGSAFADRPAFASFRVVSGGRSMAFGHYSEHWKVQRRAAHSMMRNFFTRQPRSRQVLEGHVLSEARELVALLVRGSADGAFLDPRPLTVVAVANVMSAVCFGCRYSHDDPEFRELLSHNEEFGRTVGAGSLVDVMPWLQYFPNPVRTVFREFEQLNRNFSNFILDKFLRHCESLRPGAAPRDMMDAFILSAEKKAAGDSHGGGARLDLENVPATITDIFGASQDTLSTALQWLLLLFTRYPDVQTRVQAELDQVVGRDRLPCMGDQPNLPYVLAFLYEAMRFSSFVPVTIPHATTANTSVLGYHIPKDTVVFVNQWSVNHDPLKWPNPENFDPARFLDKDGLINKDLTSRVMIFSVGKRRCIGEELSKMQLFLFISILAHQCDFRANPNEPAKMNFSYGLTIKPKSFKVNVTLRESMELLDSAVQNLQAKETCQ

[5] = biological target: T1, Cytochrome P450 1A1; test: Drug metabolism in supersomes expressing human recombinant CYP1A1 assessed as enzyme-mediated clozapine-N-oxide metabolite formation at 100 uM after 30 mins measured per nmol of P450 by HPLC analysis
[6] = biological target: T5, Cytochrome P450 1A2 (Homo sapiens, UniProt P05177); test: Drug metabolism in supersomes expressing human recombinant CYP1A2 assessed as enzyme-mediated N-desmethylclozapine metabolite formation at 100 uM after 30 mins measured per nmol of P450 by HPLC analysis
T5 sequence (P05177 whole entry): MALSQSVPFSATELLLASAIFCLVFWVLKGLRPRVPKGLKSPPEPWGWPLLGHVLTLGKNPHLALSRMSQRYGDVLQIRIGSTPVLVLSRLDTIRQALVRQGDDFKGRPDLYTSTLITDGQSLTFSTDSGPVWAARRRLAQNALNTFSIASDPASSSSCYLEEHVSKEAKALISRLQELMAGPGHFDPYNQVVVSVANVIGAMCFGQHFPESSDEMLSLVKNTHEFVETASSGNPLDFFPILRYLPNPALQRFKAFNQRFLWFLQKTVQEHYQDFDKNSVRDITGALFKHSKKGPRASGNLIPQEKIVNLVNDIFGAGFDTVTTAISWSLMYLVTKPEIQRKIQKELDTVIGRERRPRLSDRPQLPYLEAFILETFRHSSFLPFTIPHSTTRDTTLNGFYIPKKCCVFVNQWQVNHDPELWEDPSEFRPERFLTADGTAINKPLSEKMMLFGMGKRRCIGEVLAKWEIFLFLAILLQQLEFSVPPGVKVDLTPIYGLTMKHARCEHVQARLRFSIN

[7] = biological target: T4, Cytochrome P450 1B1; test: Drug metabolism in supersomes expressing human recombinant CYP1B1 assessed as enzyme-mediated N-desmethylclozapine metabolite formation at 100 uM after 30 mins measured per nmol of P450 by HPLC analysis
[8] = biological target: T5, Cytochrome P450 1A2; test: Drug metabolism in supersomes expressing human recombinant CYP1A2 assessed as enzyme-mediated total GSH conjugate formation at 100 uM after 30 mins measured per nmol of P450 by HPLC analysis in presence of GSH and hGST P1-1
[9] = biological target: T4, Cytochrome P450 1B1; test: Drug metabolism in supersomes expressing human recombinant CYP1B1 assessed as enzyme-mediated N-desmethylclozapine metabolite formation at 10 uM after 30 mins measured per nmol of P450 by HPLC analysis
[10] = biological target: T2, Cytochrome P450 2C19; test: Drug metabolism in supersomes expressing human recombinant CYP2C19 assessed as enzyme-mediated clozapine-N-oxide metabolite formation at 100 uM after 30 mins measured per nmol of P450 by HPLC analysis

T2 sequence (P33261 whole entry): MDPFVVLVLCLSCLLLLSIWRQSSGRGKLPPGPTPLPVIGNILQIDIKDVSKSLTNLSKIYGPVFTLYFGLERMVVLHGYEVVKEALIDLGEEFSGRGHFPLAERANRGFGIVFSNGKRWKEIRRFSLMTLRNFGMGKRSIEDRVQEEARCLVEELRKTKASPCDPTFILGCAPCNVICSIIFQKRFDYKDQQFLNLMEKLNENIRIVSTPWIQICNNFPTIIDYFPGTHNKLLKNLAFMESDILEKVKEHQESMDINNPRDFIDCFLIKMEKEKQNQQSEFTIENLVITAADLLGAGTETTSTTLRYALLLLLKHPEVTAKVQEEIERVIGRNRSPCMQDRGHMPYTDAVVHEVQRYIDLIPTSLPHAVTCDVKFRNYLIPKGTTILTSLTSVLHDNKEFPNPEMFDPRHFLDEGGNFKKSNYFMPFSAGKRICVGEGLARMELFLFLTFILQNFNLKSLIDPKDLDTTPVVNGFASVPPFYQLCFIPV

Question: Which Drug metabolism [1] does the source give for `CN1CCN(C2=Nc3cc(Cl)ccc3Nc3ccccc32)CC1` [CLOZAPINE] here?
Answer: 0.32 nmol/min

Question: And the Drug metabolism [2]?
Answer: 6.62 nmol/min/nmol P450

Question: What about the Drug metabolism [3] of the same molecule?
Answer: 0.025 nmol/min/nmol P450

Question: What about the Drug metabolism [4] of the same molecule?
Answer: 0.15 nmol/min

Question: What about the Drug metabolism [5] of the same molecule?
Answer: 0.2 nmol/min

Question: What about the Drug metabolism [6] of the same molecule?
Answer: 8.71 nmol/min

Question: What about the Drug metabolism [7] of the same molecule?
Answer: 0.94 nmol/min

Question: And the Drug metabolism [8]?
Answer: 0.25 nmol/min

Question: What about the Drug metabolism [9] of the same molecule?
Answer: 1.16 nmol/min

Question: And the Drug metabolism [10]?
Answer: 0.58 nmol/min/nmol P450
